Patent publication US11046709B2, “Fused 1,4-diazepines as BET bromodomain inhibitors” (THE REGENTS OF THE UNIVERSITY OF MICHIGAN, priority 2017, dated 2021)
Read-outs that look alike come from different tables or passages of the source.

What was measured:
[1] = test system: MOLM-13; experiment: Cell growth inhibition, 4-day proliferation assay, MOLM-13; format: cell-based; details: Homo sapiens
[2] = molecular target: T1, recombinant BRD4 BD2 (Homo sapiens, UniProt O60885); experiment: Competitive fluorescence-polarization (FP) binding assay, BRD4 BD2
T1 construct: for recombinant BRD4 BD1 and BRD4 BD2 proteins

[3] = Plasma exposure after oral gavage in mice, LC-MS/MS; format: in vivo; details: mouse, plasma, mice, oral gavage 25 mg/kg; for concentration at 1 h: read-out: Plasma concentration (ng/mL) 1 h; for concentration at 3 h: read-out: Plasma concentration (ng/mL) 3 h; for concentration at 6 h: read-out: Plasma concentration (ng/mL) 6 h
Method: For a number of representative compounds in Table 5, their plasma exposures with oral administration in mice via oral gavage were determined by LC-MS/MS, with the data shown in Table 9.

[4] = molecular target: T2, recombinant BRD4 BD1 (Homo sapiens, UniProt O60885); experiment: Competitive fluorescence-polarization (FP) binding assay, BRD4 BD1
T2 construct: for recombinant BRD4 BD1 and BRD4 BD2 proteins
Method: (§1) Fluorescence Polarization (FP) competitive binding studies were carried out using a FAM labeled fluorescent probe, see, e.g., Cpd. No. 350 of US 2014/0256706, to determine binding affinities of representative Compounds of the Disclosure for recombinant BRD4 BD1 and BRD4 BD2 proteins. Equilibrium dissociation constants (Kd) values of the fluorescent probe to BRD4 BD1 and BD2 proteins were determined from protein saturation experiments by monitoring the total fluorescence polarization of mixtures composed with the fluorescent probe at a fixed concentration and proteins with increasing concentrations up to full saturation. Serial dilutions of testing proteins were mixed with the fluorescent probe to a final volume of 200 μl in the assay buffer (100 mM phosphate buffer, pH=6.5, 0.01% Triton X-100 (Sigma, 282103) being added right before assays). Final fluorescent probe concentration was 1.5 nM for both proteins. Plates were incubated at room temperature for 30 minutes with gentle shaking to assure equilibrium. FP values in millipolarization units (mP) were measured using the Infinite M-1000 plate reader (Tecan U.S., Research Triangle Park, N.C.) in Microfluor 1 96-well, black, round-bottom plates (Thermo Scientific, Waltham, Mass.) at an excitation wavelength of 485 nm and an emission wavelength of 530 nm. Kd values of the fluorescent probe, which were calculated by fitting the sigmoidal dose-dependent FP increases as a function of protein concentrations using Graphpad Prism 6.0 software (Graphpad Software, San Diego, Calif.), are 5.5 and 3.0 nM to BDR4 BD1 and 2, respectively.
The IC50 and Ki values of compounds were determined in a competitive binding experiment. See US 2014/0256706. Mixtures of 10 μl of the tested compounds in assay buffer with 40% Ethylene Glycol and 190 μl of preincubated protein/probe complex solution in the assay buffer (100 mM potassium phosphate, pH 6.5, 0.01% Triton X-100) were added into assay plates which were incubated at room temperature for 30 minutes with gentle shaking. Final concentrations of proteins were 10 and 6 nM in assays for BRD4 BD1 and BD2, respectively. Final probe concentration is 1.5 nM in both assays. Negative controls containing protein/probe complex only (equivalent to 0% inhibition), and positive controls containing only free probes (equivalent to 100% inhibition), were included in each assay plate. FP values were measured as described above. IC50 values were determined by nonlinear regression fitting of the competition curves. Instead of being calculated from IC50 values as described before. Ki values of competitive inhibitors were obtained directly by nonlinear regression fitting as well, based upon the Kd values of the probe to different proteins, and concentrations of the proteins and probes in the competitive assays (US 2014/0256706; Wang, FEBS Lett. 360:111 (1995); Zhang et al., Analytical Biochemistry, 331:138 (2004)).
Representative compounds in Table 5 were evaluated for their binding affinities to BRD4 BD1 and BD2 proteins using the Competitive Fluorescence-Polarization (FP) Assays described in Example 6, with the data included in Table 6.

[5] = test system: MDA-MB-231; experiment: Cell growth inhibition, 4-day proliferation assay, MDA-MB-231; format: cell-based; details: Homo sapiens
In short: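 Cells seeded at 3,000-10,000/well, treated with serially diluted compounds 4 days at 37 °C, 5% CO2. Viability by WST-8 (10% v/v, 1-2 h, A450); readings normalized to DMSO-treated cells, IC50 by four-parameter nonlinear regression.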

[6] = molecular target: BRD2 BD2 (Homo sapiens, UniProt P25440); experiment: Competitive FP binding assay, BRD2 BD2; details: Table 8, read-out: IC50 (nM) in FP assays BRD2 BD2
Chain of BRD2 BD2 (P25440 344-453 limits assumed): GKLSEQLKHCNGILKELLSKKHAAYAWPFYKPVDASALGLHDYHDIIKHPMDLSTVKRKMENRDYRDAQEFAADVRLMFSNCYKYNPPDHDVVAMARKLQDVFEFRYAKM
Method: as §1
(§2) The IC50 and Ki values of compounds were determined in a competitive binding experiment. See US 2014/0256706. Mixtures of 10 μl of the tested compounds in assay buffer with 40% Ethylene Glycol and 190 μl of preincubated protein/probe complex solution in the assay buffer (100 mM potassium phosphate, pH 6.5, 0.01% Triton X-100) were added into assay plates which were incubated at room temperature for 30 minutes with gentle shaking. Final concentrations of proteins were 10 and 6 nM in assays for BRD4 BD1 and BD2, respectively. Final probe concentration is 1.5 nM in both assays. […] FP values were measured as described above. IC50 values were determined by nonlinear regression fitting of the competition curves. Instead of being calculated from IC50 values as described before. […]
(§3) For several representative compounds in Table 5, their binding affinities to BRD2 BD1 and BD2 proteins, and BRD3 BD1 and BD2 proteins were determined using the Competitive Fluorescence-Polarization (FP) Assays described in Example 6, with the data included in Table 8.

[7] = molecular target: BRD2 BD1 (Homo sapiens, UniProt P25440); experiment: Competitive FP binding assay, BRD2 BD1; details: Table 8, read-out: IC50 (nM) in FP assays BRD2 BD1
Chain of BRD2 BD1 (P25440 74-180 limits assumed): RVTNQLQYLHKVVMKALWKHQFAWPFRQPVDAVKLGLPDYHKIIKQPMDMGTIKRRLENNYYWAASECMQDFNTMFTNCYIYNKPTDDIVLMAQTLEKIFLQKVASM
Method: as §1, §2, §3

[8] = molecular target: BRD3 BD2 (Homo sapiens, UniProt Q15059); experiment: Competitive FP binding assay, BRD3 BD2; details: Table 8, read-out: IC50 (nM) in FP assays BRD3 BD2
Chain of BRD3 BD2 (Q15059 306-415 limits assumed): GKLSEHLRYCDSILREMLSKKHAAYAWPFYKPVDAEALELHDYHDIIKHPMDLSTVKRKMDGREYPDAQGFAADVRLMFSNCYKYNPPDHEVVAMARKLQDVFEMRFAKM
Method: as §1, §2, §3

[9] = test system: RS4;11; experiment: Cell growth inhibition, 4-day proliferation assay, RS4;11; format: cell-based; details: Homo sapiens
Method: The effect of representative Compounds of the Disclosure on cell viability was determined in a 4-day proliferation assay. Cells were maintained in the appropriate culture medium with 100/0 FBS at 37° C. and an atmosphere of 5% CO2. All the cell lines were used within three months of thawing fresh vials.
In general, cells were seeded in 96-well flat bottom (Corning COSTAR, Corning, N.Y., cat #3595) or white opaque cell culture plates (BD Falcon, cat #353296) at a density of 3,000-10,000 cells/well in 75 μl of culture medium. Compounds were serially diluted in the appropriate medium, and 75 μl of the diluted compounds were added to the appropriate wells of the cell plate. After the addition of compounds, the cells were incubated at 37° C. in an atmosphere of 5% CO2 for 4 days. Cell viability was determined using the CellTiter-Glo® Luminescent Cell Viability Assay Kit (Promega, Madison, Wis.) for leukemia cells and WST (2-(2-methoxy-4-nitrophenyl)-3-(4-nitrophenyl)-5-(2,4-disulfophenyl)-2H-tetrazolium, monosodium salt) Cell Counting-8 Kit (Dojindo Molecular Technologies, Inc., Rockville, Md.) for adherent cells according to the manufacturers' instructions.
For WST assay (adherent cells), WST-8 reagent was added to each well at a final concentration of 10% (v/v), and then the plates were incubated at 37° C. for 1-2 hours for color development. The absorbance was measured at 450 nm using a SPECTRAmax PLUS plate reader (Molecular Devices, Sunnyvale, Calif.). The readings were normalized to the DMSO-treated cells and the half maximal inhibitory concentration (IC50) was calculated by nonlinear regression (four parameters sigmoid fitted with variable slope, least squares fit, and no constraint) analysis using the GraphPad Prism 5 software (GraphPad Software, La Jolla, Calif.).
For CellTiter-Glo assay (suspension cells), 100 μl of CellTiter-Glo® Reagent was added to each well, and then the plates were incubated at room temperature for 10-20 minutes. The luminescent signal was measured using a Tecan Infinite M1000 multimode microplate reader (Tecan, Morrisville, N.C.). The readings were normalized to the DMSO-treated cells and the IC50 was calculated by nonlinear regression (four parameters sigmoid fitted with variable slope, least squares fit, and no constraint) analysis using the GraphPad Prism 5 software. See US 2014/0256706.
For a number of representative compounds in Table 5, their IC50 values in cell growth inhibition activity in the RS4;11 and MOLM-13 human leukemia cell lines and the MDA-MB-231 breast cancer cell line were evaluated using the WST-8 assay described in EXAMPLE 7, with the data shown in Table 7.

[10] = molecular target: BRD3 BD1 (Homo sapiens, UniProt Q15059); experiment: Competitive FP binding assay, BRD3 BD1; details: Table 8, read-out: IC50 (nM) in FP assays BRD3 BD1
Chain of BRD3 BD1 (Q15059 34-140 limits assumed): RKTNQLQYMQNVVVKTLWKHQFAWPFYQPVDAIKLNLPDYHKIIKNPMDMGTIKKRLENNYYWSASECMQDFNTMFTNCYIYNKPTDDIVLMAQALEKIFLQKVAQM
Method: as §1, §2, §3

[11] = MOLM-13, WST-8 assay, Table 7, read-out: Cell growth inhibition (IC50 (nM)) MOLM-13
[12] = competitive FP, Table 6, read-out: IC50 as determinined in FP assays BRD4 BD2
[13] = competitive FP, Table 6, read-out: IC50 as determinined in FP assays BRD4 BD1
[14] = MDA-MB-231, WST-8 assay, Table 7, read-out: Cell growth inhibition (IC50 (nM)) MDA-MB-231
[15] = RS4-11, 96 h, read-out: Cell IC50 (nM) RS4;11

| SMILES | IC50 [1, 11] [nM] | IC50 [2, 12] [nM] | concentration at 1 h [3] [ng/mL] | concentration at 3 h [3] [ng/mL] | concentration at 6 h [3] [ng/mL] | IC50 [4, 13] [nM] | IC50 [5, 14] [nM] | IC50 [6] [nM] | IC50 [7] [nM] | IC50 [8] [nM] | IC50 ([9]; RS4-11, WST-8 assay, Table 7, read-out: Cell growth inhibition (IC50 (nM)) RS4;11) [nM] | IC50 [10] [nM] | IC50 ([1]; MOLM-13, 96 h, read-out: Cell IC50 (nM) MOLM13) [nM] | IC50 [2] [nM] | IC50 [4] [nM] | IC50 [9, 15] [nM] | IC50 ([5]; MDA-MB-231, 96 h, read-out: Cell IC50 (nM) MDA-MB-231) [nM] |
| --- | --- | --- | --- | --- | --- | --- | --- | --- | --- | --- | --- | --- | --- | --- | --- | --- | --- |
| Cc1c(C#Cc2ccccn2)sc2c1C(c1ccc(Cl)cc1)=N[C@@H](CC(=O)N1CCOCC1)c1nnc(C)n1-2 [Compound 126, (S)-2-(4-(4-chlorophenyl)-3,9-dimethyl-2-(pyridin-2-ylethynyl)-6H-thieno[3,2-f][1,2,4]triazolo[4,3-a][1,4]diazepin-6-yl)-1-morpholinoethan-1-one] | 13.5 | 27.8 | 2910 | 599 | 473 | 8.7 | 60.7 |  |  |  |  |  |  |  |  |  |  |
| Cc1nnc(C[C@@H]2N=C(c3ccc(Cl)cc3)c3c(sc(C#CC4CC4)c3C)-n3c(C)nnc32)o1 [Compound 143, (S)-2-((4-(4-chlorophenyl)-2-(cyclopropylethynyl)-3,9-dimethyl-6H-thieno[3,2-f][1,2,4]triazolo[4,3-a][1,4]diazepin-6-yl)methyl)-5-methyl-1,3,4-oxadiazole] | 6.06 | 21.6 | 3170 | 2700 | 3670 | 8.86 | 6.59 |  |  |  |  |  |  |  |  |  |  |
| Cc1nnc(C[C@@H]2N=C(c3ccc(Cl)cc3)c3c(sc(C#CC(C)(C)O)c3C)-n3c(C)nnc32)o1 [Compound 144, (S)-4-(4-(4-chlorophenyl)-3,9-dimethyl-6-((5-methyl-1,3,4-oxadiazol-2-yl)methyl)-6H-thieno[3,2-f][1,2,4]triazolo[4,3-a][1,4]diazepin-2-yl)-2-methylbut-3-yn-2-ol] | 36.4 | 26.4 | 4160 | 7580 | 1120 | 21.8 | 288 |  |  |  |  |  |  |  |  |  |  |
| Cc1c(C#CC2CCOCC2)sc2c1C(c1ccc(Cl)cc1)=N[C@@H](CC(=O)N1CCC(C)(O)CC1)c1nnc(C)n1-2 [Compound 157, (S)-2-(4-(4-chlorophenyl)-3,9-dimethyl-2-((tetrahydro-2H-pyran-4-yl)ethynyl)-6H-thieno[3,2-f][1,2,4]triazolo[4,3-a][1,4]diazepin-6-yl)-1-(4-hydroxy-4-methylpiperidin-1-yl)ethan-1-one] | 25.4 | 50.3 | 4630 | 3760 | 1190 | 55.2 |  | 146 | 39.3 | 120 | 37 | 85.1 |  |  |  |  |  |
| Cc1nnc(C[C@@H]2N=C(c3ccc(Cl)cc3)c3c(sc(C#CC4CCNCC4)c3C)-n3c(C)nnc32)o1 [Compound 174, (S)-2-((4-(4-chlorophenyl)-3,9-dimethyl-2-(piperidin-4-ylethynyl)-6H-thieno[3,2-f][1,2,4]triazolo[4,3-a][1,4]diazepin-6-yl)methyl)-5-methyl-1,3,4-oxadiazole] | 3.1 | 46 | 56 | 12 | 3 | 49.9 | 9.43 |  |  |  |  |  |  |  |  |  |  |
| Cc1nnc(C[C@@H]2N=C(c3ccc(Cl)cc3)c3c(sc(C#CC4CCN(C)CC4)c3C)-n3c(C)nnc32)o1 [Compound 175, (S)-2-((4-(4-chlorophenyl)-3,9-dimethyl-2-((1-methylpiperidin-4-yl)ethynyl)-6H-thieno[3,2-f][1,2,4]triazolo[4,3-a][1,4]diazepin-6-yl)methyl)-5-methyl-1,3,4-oxadiazole] | 5 | 93.2 | 413 | 384 | 68 | 31.8 | 3.96 |  |  |  |  |  |  |  |  |  |  |
| Cc1c(C#Cc2cnn(C)c2)sc2c1C(c1ccc(Cl)cc1)=NCc1nnc(C)n1-2 [compound 23, 4-(4-chlorophenyl)-3,9-dimethyl-2-((1-methyl-1H-pyrazol-4-yl)ethynyl)-6H-thieno[3,2-f][1,2,4]triazolo[4,3-a][1,4]diazepine] |  |  |  |  |  |  |  |  |  |  |  |  | > 100 | 63.1 | 14.3 | > 100 |  |
| Cc1c(C#Cc2ccc3[nH]ncc3c2)sc2c1C(c1ccc(Cl)cc1)=NCc1nnc(C)n1-2 [compound 41, 2-((1H-indazol-5-yl)ethynyl)-4-(4-chlorophenyl)-3,9-dimethyl-6H-thieno[3,2-f][1,2,4]triazolo[4,3-a][1,4]diazepine] |  |  |  |  |  |  |  |  |  |  |  |  |  |  |  | 278 | 680 |
